{"source": "patent US20240058312A1", "about": "“METHODS AND MATERIALS FOR TREATING BONE LOSS” (The Penn State Research Foundation, priority 2021, published 2024)", "key": {"[1]": {"system": "C57BL/6J mice with sciatic nerve, biceps femoris and quadriceps femoris muscle crush injury", "experiment": "DEXA scanning of tibial bone after sciatic nerve and muscle crush injury", "type": "in vivo", "conditions": "40 μg/mouse/day IP for 21 days", "experimental": "Ten-week-old male C57BL/6J mice (Jackson Laboratories, Bar Harbor, Maine) weighing 25±3 g were used. Sciatic nerve crush injury was performed with muscle crush injury as described elsewhere (Govindappa et al., Int. Immunopharmacol., 82:106330 (2020)). Briefly, after intraperitoneal (IP) ketamine (100 mg/kg)/xylazine (10 mg/kg) anesthesia, the right hindlimb was shaved and prepared with alcohol swabs and povidone-iodine (Betadine). Using a stereo zoom binocular microscope, a lateral skin incision (˜3 cm) was made along the length of the femur and the sciatic nerve (SN) was bluntly exposed through the iliotibial band. Nerve crush injury was performed ˜3 mm proximal to the SN trifurcation and muscle crush injury was performed at the center of Biceps femoris (BF) and Quadriceps femoris (QF) muscle using calibrated forceps (5 mm tip width; 18-1107, Miltex Instruments) for 30 seconds (nerve) and 60 seconds (muscles), respectively. Uninjured contralateral normal limbs were kept without injury as controls. The skin was closed using surgical staples and post-operative slow-release buprenorphine (0.05 mg/kg) was given subcutaneously to all animals as an analgesic. […]\nThe data were analyzed using one-way and two-way analysis of variance (ANOVA) using GraphPad Prism Version 8.2.0. […]"}, "[2]": {"system": "C57BL/6J mice with sciatic nerve, biceps femoris and quadriceps femoris muscle crush injury", "experiment": "micro-CT of tibial bone microarchitecture after sciatic nerve and muscle crush injury", "type": "in vivo", "conditions": "tibial metaphysis, 40 μg/mouse/day IP for 21 days, vs. saline", "experimental": "Ten-week-old male C57BL/6J mice (Jackson Laboratories, Bar Harbor, Maine) weighing 25±3 g were used. Sciatic nerve crush injury was performed with muscle crush injury as described elsewhere (Govindappa et al., Int. Immunopharmacol., 82:106330 (2020)). Briefly, after intraperitoneal (IP) ketamine (100 mg/kg)/xylazine (10 mg/kg) anesthesia, the right hindlimb was shaved and prepared with alcohol swabs and povidone-iodine (Betadine). Using a stereo zoom binocular microscope, a lateral skin incision (˜3 cm) was made along the length of the femur and the sciatic nerve (SN) was bluntly exposed through the iliotibial band. Nerve crush injury was performed ˜3 mm proximal to the SN trifurcation and muscle crush injury was performed at the center of Biceps femoris (BF) and Quadriceps femoris (QF) muscle using calibrated forceps (5 mm tip width; 18-1107, Miltex Instruments) for 30 seconds (nerve) and 60 seconds (muscles), respectively. Uninjured contralateral normal limbs were kept without injury as controls. The skin was closed using surgical staples and post-operative slow-release buprenorphine (0.05 mg/kg) was given subcutaneously to all animals as an analgesic.\nThe experimental animals (6 animals/group) were randomized to normal saline (0.1 mL/mouse) and 4-AP (40 μg/mouse) treatment groups. 4-AP was given by IP injection immediately after surgery and daily for 21 days. Animals were euthanized using isoflurane on post-injury day 22 to harvest hindlimbs. Harvested hindlimbs were subjected to dual-energy X-ray absorptiometry (DEXA) and microcomputed tomography (micro-CT) scanning to analyze the bone quality.\nThe data were analyzed using one-way and two-way analysis of variance (ANOVA) using GraphPad Prism Version 8.2.0. All values are presented as mean±SEM. Probability (P) values of <0.05 were considered statistically significant."}}}
{"smiles": "Nc1ccncc1", "note": "[4-AP, 4-aminopyridine]", "values": [{"measurement": "tibial bone volume", "setting": "[1]; combined nerve and muscle crush injury, P<0.05 vs. saline, FIG. 1A", "result": "significantly improves"}, {"measurement": "BMD (bone mineral density) of tibial bone", "setting": "[1]; nerve and muscle injury associated tibial bone, mean, P<0.05 vs. saline (76.57)", "result": 79.75, "unit": "mg/cm^2"}, {"measurement": "bone volume fraction", "setting": "[2]", "result": "upregulating"}, {"measurement": "structural model index (SMI)", "setting": "[2]", "result": "downregulated"}, {"measurement": "trabecular separation", "setting": "[2]", "result": "downregulated"}, {"measurement": "trabecular thickness", "setting": "[2]", "result": "upregulating"}]}
